In ChEMBL document CHEMBL2086332, “Identification of a selective small molecule inhibitor of breast cancer stem cells” (Bioorg Med Chem Lett, 2012):
Values after ≈ are worked out from the molar mass of the structure shown. Active and inactive are the calls of the source. No cut-off for these calls is given here.

Tests used:
Homo sapiens = organism: Homo sapiens; assay: Growth inhibition of human breast cancer stem cells at 20 uM; type: functional
[1] = Growth inhibition of human mammary epithelial cells at 20 uM; type: cell-based; conditions: epithelial cell
[2] = Growth inhibition of human breast cancer stem cells; type: functional
[3] = Growth inhibition of human mammary epithelial cells; type: cell-based; conditions: Epithelial cell
[4] = Solubility in phosphate buffered saline at 100 microM with 1% DMSO at pH 7.4 at 23 degC by UPLC-MS method; type: physicochemical
[5] = Stability in presence of glutathione containing medium assessed as compound remaining measured after 48 hrs by UPLC-MS method; type: physicochemical; conditions: read-out: Stability
[6] = Stability in phosphate buffered saline with 0.1% DMSO assessed as compound remaining measured after 48 hrs by UPLC-MS method; type: physicochemical; conditions: read-out: Stability
[7] = Stability in human plasma assessed as compound remaining measured after 5 hrs by UPLC-MS method; type: ADME, cell-free; conditions: read-out: Stability
[8] = Protein binding in human plasma incubated for 48 hrs by UPLC-MS method; type: ADME, cell-free; conditions: read-out: PPB (converted)

SMILES | growth inhibition (GI) (Homo sapiens) | growth inhibition (GI) [1] | EC50 [2] | EC50 [3] | also measured
O=C(COc1ccc(Cl)cc1Cl)N/N=C/c1ccccn1 | inactive | Non-toxic |  |  | 
Cn1cccc1/C=N/NC(=O)COc1ccc(Cl)cc1Cl | inactive | Non-toxic |  |  | 
O=C(CSc1ccc(Cl)cc1Cl)N/N=C/c1ccc[nH]1 |  |  | 2.3 µM | 18 µM | 
CC(Oc1cc(Cl)ccc1Cl)C(=O)N/N=C/c1ccc[nH]1 (stereo not drawn) |  |  | 33.4 µM | 97.7 µM | 
O=C(COc1c(Cl)cccc1Cl)N/N=C/c1ccc[nH]1 |  | Non-toxic | 126 µM |  | 
O=C(COc1ccc(Cl)cc1Cl)N/N=C/c1cc2ccccc2[nH]1 |  |  | 125 µM | 23.5 µM | 
N#Cc1ccccc1OCC(=O)N/N=C/c1ccc[nH]1 | inactive | Non-toxic |  |  | 
Cc1cc(Br)ccc1OCC(=O)N/N=C/c1ccc[nH]1 |  | Non-toxic | 3.76 µM |  | 
O=C(COc1ccc(Cl)cc1Cl)N/N=C/c1ccc[nH]1 |  | Non-toxic | 3.33 µM |  | 
C/C(=N\NC(=O)COc1ccc(Cl)cc1Cl)c1ccc[nH]1 | inactive | Non-toxic |  |  | 
O=C(COc1ccc(F)cc1Cl)N/N=C/c1ccc[nH]1 |  |  | 8.86 µM | 33.6 µM | 
Cc1cc(Cl)ccc1OCC(=O)N/N=C/c1ccc[nH]1 |  |  | 2.89 µM | 26.7 µM | 
O=C(COc1ccc2ccccc2c1Br)N/N=C/c1ccc[nH]1 |  |  | 1.11 µM | 3.03 µM | 
O=C(COc1ccc(Cl)cc1Cl)N/N=C/c1cccs1 | inactive | Non-toxic |  |  | 
O=C(COc1ccc(Cl)cc1)N/N=C/c1ccc[nH]1 |  | Non-toxic | 22.5 µM |  | 
O=C(COc1ccccc1Cl)N/N=C/c1ccc[nH]1 |  | Non-toxic | 33.5 µM |  | 
O=C(N/N=C/c1ccc[nH]1)C1CC1c1ccccc1 (stereo not drawn) |  | Non-toxic | 12.9 µM |  | 
Cc1ccc(/C=N/NC(=O)COc2ccc(Cl)cc2Cl)[nH]1 |  |  | 14.3 µM | 16.9 µM | 
O=C(COc1ccc(Cl)cc1Cl)N/N=C/c1cc[nH]n1 | inactive | Non-toxic |  |  | 
O=C(COc1ccc(Cl)cc1Br)N/N=C/c1ccc[nH]1 |  |  | 3.16 µM | 20.9 µM | 

SMILES | growth inhibition (GI) (Homo sapiens) | growth inhibition (GI) [1] | EC50 [2] | EC50 [3] | also measured
O=C(COc1ccc(Cl)cc1Cl)N/N=C/c1ccco1 | inactive | Non-toxic |  |  | 
O=C(N/N=C/c1ccc[nH]1)C1COc2cc3ccccc3cc2O1 (stereo not drawn) |  |  | 4.21 µM | 18.9 µM | 
O=C(COc1ccc2c(c1)OCO2)N/N=C/c1ccc[nH]1 |  |  | 36.2 µM | 21 µM | 
O=C(COc1cc(Cl)ccc1Cl)N/N=C/c1ccc[nH]1 |  | Non-toxic | 3.39 µM |  | 
O=C(N/N=C/c1ccc[nH]1)C1CC1c1ccc(Cl)cc1Cl (stereo not drawn) |  | Non-toxic | 59.1 µM |  | 
O=C(CCc1ccc2c(c1)OCO2)N/N=C/c1ccc[nH]1 |  | Non-toxic | 53.4 µM |  | 
CC(C)(C)c1ccc2c(c1)OC(C(=O)N/N=C/c1ccc[nH]1)CO2 (stereo not drawn) |  |  | 2.51 µM | 15 µM | 
Cc1ccccc1OCC(=O)N/N=C/c1ccc[nH]1 |  | Non-toxic | 40.7 µM |  | 
O=C(N/N=C/c1ccc[nH]1)C1Cc2ccccc2O1 (stereo not drawn) | inactive | Non-toxic |  |  | 
O=C(N/N=C/c1ccc[nH]1)c1cc2ccccc2o1 |  | Non-toxic | 6.32 µM |  | 
O=C(COc1ccc(Cl)cc1Cl)N/N=C/c1c[nH]cn1 | inactive | Non-toxic |  |  | 
Cc1cc(C)c(OCC(=O)N/N=C/c2ccc[nH]2)c(C)c1 |  | Non-toxic | 9.42 µM |  | 
O=C(COc1ccc(Cl)cc1Cl)N/N=C/c1ccccc1 | inactive | Non-toxic |  |  | 
COc1ccccc1OCC(=O)N/N=C/c1ccc[nH]1 | inactive | Non-toxic |  |  | 
CC(Oc1ccc(F)cc1Cl)C(=O)N/N=C/c1ccc[nH]1 (stereo not drawn) |  | Non-toxic | 35.4 µM |  | 
O=C(COc1c(Cl)cc(Cl)cc1Cl)N/N=C/c1ccc[nH]1 |  |  | 1.16 µM | 27.6 µM | solubility kinetic at 100 µM [4]: 6.3 µM (≈ 2.18 µg/mL); remaining at 48 h [5]: 85%; remaining at 48 h [6]: 76%; remaining at 5 h [7]: 49%; fraction unbound at 48 h [8]: 0.012
O=C(COc1ccc(Cl)cc1Cl)N/N=C/c1ccccc1O |  |  | 79.5 µM | 56.3 µM | 
CC(C)(C)c1ccc(C2CC2C(=O)N/N=C/c2ccc[nH]2)cc1 (stereo not drawn) |  |  | 0.79 µM | 2.14 µM | 
Cc1ccccc1NCC(=O)N/N=C/c1ccc[nH]1 | inactive | Non-toxic |  |  | 
